Test system: 4T1 tumors
Assay: Therapeutic efficacy in mice bearing 4T1 tumors
Format: in vivo
Conditions: doxorubicin equivalent 5 mg/kg, four treatments once every 3 days
Protocol: Referring to FIGS. 22 and 23, the amounts of doxorubicin in four groups are equivalent at 5 mg/kg, and all mice received a total of four treatments once every 3 days.

COc1cccc2c1C(=O)c1c(O)c3c(c(O)c1C2=O)C[C@@](O)(C(=O)CO)C[C@@H]3O[C@H]1C[C@H](N)[C@H](O)[C@H](C)O1 [free doxorubicin, doxorubicin]
effect on tumor progression / tumor growth: Neither mice treated with free doxorubicin nor with MSNs-Tz/anti-CD11b-TCO without doxorubicin had an effect on tumor progression
